Experimental data reported in US7226783B1, “Vanillin production” (David Michael & Co., Inc., priority 1997, dated 2007).

Assays:
[1] = system: alcohol dehydrogenase from Vanilla planifolia embryo culture (vanillyl alcohol dehydrogenase, VAD); assay: Substrate specificity of vanillyl alcohol dehydrogenase (VAD); format: biochemical; conditions: for Activity with the compound as substrate, NADH: cofactor NADH; for Activity with the compound as substrate, NADPH: cofactor NADPH
Protocol: We have purified and characterized the activity of VAD that catalyze the reduction of vanillin to vanillyl alcohol. The enzyme was identified as an NADH or NADPH-dependent alcohol dehydrogenase. The purification protocol was as set forth below.
Crude enzyme extract: Tissue was homogenized in 0.05 M actetate-Na buffer pH 4.0 (in proportion, 1 g of the tissue and 5 ml of the buffer) in an ice bath, using Polytrone homogenizer, at 20,000 revolutions of the blade per min. The homogenate was centrifuged at 13000 g for 15 min at 4° C. and the supernatant served as the crude enzyme source.
Ammonium sulfate fractionation and molecular sieving: Crude enzyme extract (100 ml) was supplied with ammonium sulfate in an ice bath up to 60% of saturation (44.4 g of Ammonium sulphate per 100 ml). The precipitate was centrifuged and discarded. The supernatant was supplied with ammonium sulfate up to 90% of saturation (total 64.6 g per 100 ml of crude extract). The precipitate was collected (10 min centrifugation at 10,000 g), dissolved in 7 ml of extraction buffer and subjected to molecular sieving at Sephacryl S-300 High Load Column (LKB Pharmacia) 2.6×60 cm, in 0.1 M pH 4.0 acetate-Na buffer. The flow rate was adjusted to 1 ml/min and 5 ml fractions were collected. The protein elution profile was monitored at 280 nm. Five fractions (of a total of 50) containing dehydrogenase activity (130–155 ml of the column eluate) were collected.
The column was developed with 0.5 M Tris/HCL buffer pH 7.4 in 0.0–1.0 M NaCl gradient (total gradient volume—70 ml) and 2.5 ml fractions were collected. Vanillyl alcohol dehydrogenase was released from the column between 0.3–0.4 M NaCl. Fractions containing VAD activity were dialysed overnight against 0.05 M caetate-Na buffer pH 4.0 and concentrated up to 50 times using Minicon concentrating filters (Amicon). […]

Vanilla embryo culture = assay: Feeding vanilla embryo culture with vanillin precursors, HPLC analysis of metabolites; format: cell-based, Vanilla planifolia
From the text: We derived a scheme for the vanillin biosynthetic pathway by analysis of metabolites in cultured embryos and by experiments with feeding of precursors and intermediates. This scheme is shown in FIG. 1 and the experiments are described below.
(§1) Embryo cultures of Vanilla planifolia were established as described in Example 1. The procedures used to extract phenolics from the cultured embryo cells and to analyze the extracts by high pressure liquid chromatography (HPLC) were as described generally by Havkin-Frenkel et al., Plant Cell, Tissue and Organ Culture 45: 133–136 (1996).
(§2) In the extraction procedure, 3 ml of 0.05 M sodium acetate buffer, pH 5.5, was added to about 1 gram of fresh culture. Samples were placed in boiling water for three minutes, then chilled. The cells were next homogenized in a Polytron blender for 1 minute at medium speed. A β-glucosidase solution was added to the homogenized cells to give a final concentration of 0.2%. Each sample was then incubated at 37° C. for 5 hr. Next, 17 ml of 95% ethanol was added, after which incubation at 37° C. was continued for an additional 24 hrs. The extract was then filtered and the ethanol evaporated. The filtrate was extracted twice using ethyl acetate, then extracted twice with ethyl acetate acidified to pH 3 with HCl. The extracts were combined and the ethyl acetate evaporated. The residue was dissolved in 1 ml of acidified methanol and filtered with a 0.45 μm syringe filter for HPLC analysis.
Extractions of metabolites from culture medium was similar to the cell extraction protocol. Five ml of spent medium was incubated in a β-glucosidase solution at 37° C. for 24 hrs. The medium was then extracted with ethyl acetate and the organic portions combined and evaporated, as for the cell extracts.
(§3) Metabolite levels were measured with a Hewlett Packard 1090L or a Waters HPLC with a UV detector at 280 nm. The Waters HPLC was also equipped with a diode array detector to confirm the identities of the various intermediates, and the identities of the various intermediates were further confirmed by mass spectrometry. The column was a Supelco C-18 DB column of dimensions 250 mm×4.6 mm and a particle size of 5 μm. The mobile phase contained methanol and water, each of which was acidified with 1.25% acetic acid. The flow rate was 1 ml/min, with a solvent gradient as follows: […]
Results of selected experiments in which precursors or elicitors were added to vanilla cultures are set forth below. These experiments were performed in accordance with the procedures set forth in Examples 1–4.

[2] = system: p-hydroxybenzaldehyde synthase; assay: Substrate specificity of p-hydroxybenzaldehyde synthase (chain shortening enzyme), crude enzyme; format: biochemical, Vanilla planifolia; conditions: for Result: conversion of the compound as substrate to the expected chain-shortened product: crude enzyme, HPLC detection of product
Protocol: Sterile plant material (2 g) 2–3 weeks after subculture, was homogenized in a cooled Potter glass homogenizer with 4 ml of 0.1 M HEPES buffer, pH 8.0, containing 10 mM DTT. The homogenate was next centrifuged at 4° C. at 15.000× g for 15 min. Resultant supernatant (4 ml) was filtered through Sephadex G-25 column (void volume 3–4 ml.) Equilibrated with Tris/HCL buffer pH7, containing 10 mM DTT. The column was washed with the same buffer and 2 ml fraction following the void volume was collected. This fraction was used as the crude enzyme source.
The p-HO-aldehyde synthase activity was determined in the following mixture:
crude enzyme extract: 10 μl
(substrate=1.8 mM p-coumarate in 0.1 M Tris/HCl, pH 8.0 with 10 mM DTT)
The mixture was incubated for 10–60 min (for longer incubation times, the activity was not proportional with time) at 35° C. and next, the reaction stopped by addition of 200 μl of acidified methanol (10% acetic acid in methanol). The slurry was passed through 0.45 μm filter and the filtrate (50 μl) injected into HPLC Bio-sil 18 HL 90-5 column (Reversed phase, 250 mm×4.6 mm). […] The eluate was monitored at 280 nm and retention time of the reaction product was compared to retention time of the standard compounds (benzaldehyde, p-HO-benzaldehyde, vanillin, protocatechuic aldehyde, p-coumaric acid, caffeic acid, ferulic acid, coniferyl aldehyde). The results were quantified using LKB Bromma 2221 Integrator.
As a potential substrates for chain shortening enzyme the following compounds were tested: […]

[3] = system: Vanilla planifolia Embryo Culture; assay: Malic acid elicitation of embryo culture, HPLC analysis of intermediary metabolites; format: cell-based
Protocol: as §1, §2, §3
Malic acid in concentrations of 0.1 to 3% was applied as a disodium salt to the growing medium. The culture was maintained for 1 to 15 days, then was extracted as described in Example 2.
Cultures were grown in medium containing 3% malic acid by weight, for 7 days.

[4] = 3% malic acid by weight in medium, 7 days

Q: How did the “substrate preference of VAD” value [1] turn out when `CC=O` [Acetaldehyde] was run?
A: lower

Q: What about the “Activity with the compound as substrate, NADH” value (“Activity … NADH” below) [1] of the same compound?
A: 0.26 nmoles · gfwt^−1 · min^−1

Q: `COc1cc(CO)ccc1O` [VN. ALC., vanillyl alcohol] was tested. Which “CA (p-coumaric acid) content of culture” value (Vanilla embryo culture; precursor fed at 2 mM) did it give?
A: 206 mg/100 g dry wt.

Q: What about the “HBA (p-hydroxybenzyl alcohol) content of culture” value (Vanilla embryo culture; precursor fed at 2 mM) of the same compound?
A: 10350 mg/100 g dry wt.

Q: And the “PRO-ALD (3,4-dihydroxybenzaldehyde) content of culture” value (from here on “PRO-ALD”) (Vanilla embryo culture; precursor fed at 2 mM)?
A: 1.1 mg/100 g dry wt.

Q: What about the “VN (vanillin) content of culture” value (Vanilla embryo culture; precursor fed at 2 mM) of the same compound?
A: 8.5 mg/100 g dry wt.

Q: What about the “VN ALC (vanillyl alcohol) content of culture” value (from here on “VN ALC”) (Vanilla embryo culture; precursor fed at 2 mM) of the same compound?
A: 882 mg/100 g dry wt.

Q: How did the “CA (p-coumaric acid) content of culture” value (Vanilla embryo culture; precursor fed at 1 mM) turn out when `OCc1ccc(O)cc1` [HBA, p-hydroxybenzyl alcohol] was run?
A: 158 mg/100 g dry wt.

Q: And the “HBA (p-hydroxybenzyl alcohol) content of culture” value (Vanilla embryo culture; precursor fed at 1 mM)?
A: 13100 mg/100 g dry wt.

Q: What about the “PRO-ALD” value (Vanilla embryo culture; precursor fed at 1 mM) of the same compound?
A: 4.6 mg/100 g dry wt.

Q: What about the “VN (vanillin) content of culture” value (Vanilla embryo culture; precursor fed at 1 mM) of the same compound?
A: 0.001 mg/100 g dry wt.

Q: And the “VN ALC” value (Vanilla embryo culture; precursor fed at 1 mM)?
A: 9.6 mg/100 g dry wt.

Q: What about the “fate of HBA in tissue homogenates” value (Vanilla embryo culture; tissue homogenates) of the same compound?
A: rapidly metabolized to dihydroxybenzyl aldehyde

Q: With `O=Cc1ccc(O)cc1` [BA, p-hydroxybenzaldehyde] as the compound, how does the “CA (p-coumaric acid) content of culture” value (Vanilla embryo culture; precursor fed at 1 mM) read?
A: 125 mg/100 g dry wt.

Q: And the “HBA (p-hydroxybenzyl alcohol) content of culture” value (Vanilla embryo culture; precursor fed at 1 mM)?
A: 10305 mg/100 g dry wt.

Q: And the “PRO-ALD” value (Vanilla embryo culture; precursor fed at 1 mM)?
A: 5.8 mg/100 g dry wt.

Q: What about the “VN (vanillin) content of culture” value (Vanilla embryo culture; precursor fed at 1 mM) of the same compound?
A: 0.015 mg/100 g dry wt.

Q: What about the “VN ALC” value (Vanilla embryo culture; precursor fed at 1 mM) of the same compound?
A: 12.3 mg/100 g dry wt.

Q: What about the “Activity … NADH” value [1] of the same compound?
A: 0.32 nmoles · gfwt^−1 · min^−1

Q: And the “Activity with the compound as substrate, NADPH” value [1]?
A: 0.14 nmoles · gfwt^−1 · min^−1

Q: Which results are given for `O=C(O)/C=C/c1ccc(O)cc1` [CA, p-coumaric acid]?
A: CA (p-coumaric acid) content of culture (Vanilla embryo culture; precursor fed at 1 mM): 220 mg/100 g dry wt.; HBA (p-hydroxybenzyl alcohol) content of culture (Vanilla embryo culture; precursor fed at 1 mM): 13000 mg/100 g dry wt.; PRO-ALD (3,4-dihydroxybenzaldehyde) content of culture (Vanilla embryo culture; precursor fed at 1 mM): 10 mg/100 g dry wt.; VN (vanillin) content of culture (Vanilla embryo culture; precursor fed at 1 mM): 0.01 mg/100 g dry wt.; VN ALC (vanillyl alcohol) content of culture (Vanilla embryo culture; precursor fed at 1 mM): 10 mg/100 g dry wt.; specificity of the tested enzyme towards substrate [2]: very high specificity; Result: conversion of the compound as substrate to the expected chain-shortened product [2]: positive

Q: `CCOc1cc(C=O)ccc1OC` [4-methoxy-3-ethoxybenzaldehyde] was tested. Which “Activity … NADH” value [1] did it give?
A: 0.00 nmoles · gfwt^−1 · min^−1

Q: What does the source list for `O=Cc1ccccc1` [Benzaldehyde]?
A: Activity with the compound as substrate, NADH [1]: 0.33 nmoles · gfwt^−1 · min^−1; Activity with the compound as substrate, NADPH [1]: 0.18 nmoles · gfwt^−1 · min^−1

Q: `O=CC=Cc1ccccc1` [Cinnamylaldehyde] was tested. Which “Activity … NADH” value [1] did it give?
A: 0.00 nmoles · gfwt^−1 · min^−1

Q: How did the “CA (p-coumaric acid) content of culture” value (Vanilla embryo culture; precursor fed at 25 mM) turn out when `COc1cc(/C=C/C(=O)O)ccc1O` [FA, ferulic acid] was run?
A: 136 mg/100 g dry wt.

Q: And the “HBA (p-hydroxybenzyl alcohol) content of culture” value (Vanilla embryo culture; precursor fed at 25 mM)?
A: 11007 mg/100 g dry wt.

Q: What about the “PRO-ALD” value (Vanilla embryo culture; precursor fed at 25 mM) of the same compound?
A: 4.8 mg/100 g dry wt.

Q: What about the “VN (vanillin) content of culture” value (Vanilla embryo culture; precursor fed at 25 mM) of the same compound?
A: 11.8 mg/100 g dry wt.

Q: And the “VN ALC” value (Vanilla embryo culture; precursor fed at 25 mM)?
A: 23.8 mg/100 g dry wt.

Q: And the “Result: conversion of the compound as substrate to the expected chain-shortened product” value [2]?
A: negative

Q: Which “Result: conversion of the compound as substrate to the expected chain-shortened product” value [2] does the source give for `O=C(O)/C=C/c1ccccc1` [t-cinnamic acid] here?
A: negative

Q: Which “Activity … NADH” value [1] does the source give for `COc1ccc(C=O)cc1O` [4methoxy-3-hydroxybenzaldehyde] here?
A: 0.00 nmoles · gfwt^−1 · min^−1

Q: What about the “Activity with the compound as substrate, NADPH” value [1] of the same compound?
A: 0.00 nmoles · gfwt^−1 · min^−1

Q: `CCOc1cc(C=O)ccc1O` [4-hydroxy-3-ethoxybenzaldehyde] was tested. Which “Activity … NADH” value [1] did it give?
A: 0.42 nmoles · gfwt^−1 · min^−1

Q: What does the source list for `O=C(O)CC(O)C(=O)O` (stereo not drawn) [Malic Acid, malic acid]?
A: BA content of culture [3, 4]: 0.02% of Dry Weight; HBA content of culture [3, 4]: 3.60% of Dry Weight; HMBA (vanillyl alcohol) content of culture [3, 4]: 0.700% of Dry Weight; HY content of culture [3, 4]: 0.050% of Dry Weight; PC content of culture [3, 4]: 0.20% of Dry Weight; PROALD content of culture [3, 4]: 0.025% of Dry Weight; VN (vanillin) content of culture [3, 4]: 0.072% of Dry Weight; stimulation of vanillin production relative to standard conditions ([3]; 3% malic acid by weight, 7 days, embryo cultures): more than tenfold; vanillin yield ([3]; 3% malic acid, embryo cultures, increase from 5): 72 mg/100 g tissue; effect on production/accumulation of vanillin and vanillyl alcohol ([3]; malic acid 0.1 to 3% as disodium salt, 1 to 15 days): induced the production/accumulation of vanillin and vanillyl alcohol
